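Tested at 5 concentrations; 48 h exposure; 96-well plates; endpoints linearly interpolated, else capped at highest concentration. Abbreviation: GI50, concentration required for 50% inhibition of growth.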 Activity calls are given as the source filed them. Rule as the data show it: active = GI50 up to about 1.1 µM and inactive = higher.
Legend:
Test in all cases: inhibition of tumour cell growth, NCI panel, 48 h
NCI-H226 = system: NCI-H226
SNB-75 = system: SNB-75
TK-10 = system: TK-10
K562 = system: K562
EKVX = system: EKVX
KM12 = system: KM12
SK-MEL-28 = system: SK-MEL-28
786-0 = system: 786-0
MOLT-4 = system: MOLT-4
SR = system: SR
HCC 2998 = system: HCC 2998
SNB-78 = system: SNB-78
LOX IMVI = system: LOX IMVI
COLO 205 = system: COLO 205
UACC-257 = system: UACC-257
KM-20L2 = system: KM-20L2
OVCAR-5 = system: OVCAR-5
OVCAR-3 = system: OVCAR-3
DMS-114 = system: DMS-114
HCT-116 = system: HCT-116
OVCAR-4 = system: OVCAR-4
NCI-H460 = system: NCI-H460
A549 = system: A549
UO-31 = system: UO-31
SF-268 = system: SF-268
M19-MEL = system: M19-MEL
M14 = system: M14
SN12C = system: SN12C
CAKI-1 = system: CAKI-1
SF-295 = system: SF-295
HL-60 = system: HL-60
DLD-1 = system: DLD-1
SK-MEL-2 = system: SK-MEL-2
HOP-62 = system: HOP-62
HT-29 = system: HT-29
DMS-273 = system: DMS-273
U-251 = system: U-251
SF-539 = system: SF-539
SNB-19 = system: SNB-19
RXF 393 = system: RXF 393
NCI-H23 = system: NCI-H23
SW-620 = system: SW-620
ACHN = system: ACHN
IGROV-1 = system: IGROV-1
HCT-15 = system: HCT-15
A498 = system: A498
Malme-3M = system: Malme-3M
RPMI-8226 = system: RPMI-8226
OVCAR-8 = system: OVCAR-8
SK-OV-3 = system: SK-OV-3
SK-MEL-5 = system: SK-MEL-5

Measured: GI50

N#Cc1c(CC(=O)O)cc(=O)n2c1[nH]c1ccccc12
> 100 µM: HCT-15
inactive: NCI-H226 > 100 µM | SNB-75 > 100 µM | TK-10 > 100 µM | K562 > 100 µM | EKVX > 100 µM | KM12 > 100 µM | SK-MEL-28 > 100 µM | 786-0 > 100 µM | MOLT-4 > 100 µM | SR > 100 µM | HCC 2998 > 100 µM | SNB-78 > 100 µM | LOX IMVI > 100 µM | COLO 205 > 100 µM | UACC-257 > 100 µM | KM-20L2 > 100 µM | OVCAR-5 > 100 µM | OVCAR-3 > 100 µM | DMS-114 > 100 µM | HCT-116 > 100 µM | OVCAR-4 > 100 µM | NCI-H460 > 100 µM | A549 > 100 µM | UO-31 > 100 µM | SF-268 > 100 µM | M19-MEL > 100 µM | M14 > 100 µM | SN12C > 100 µM | CAKI-1 > 100 µM | SF-295 > 100 µM | HL-60 > 100 µM | DLD-1 > 100 µM | SK-MEL-2 > 100 µM | HOP-62 > 100 µM | HT-29 > 100 µM | DMS-273 > 100 µM | U-251 > 100 µM | SF-539 > 100 µM | SNB-19 > 100 µM | RXF 393 > 100 µM | NCI-H23 > 100 µM | SW-620 > 100 µM | ACHN > 100 µM | IGROV-1 > 100 µM | A498 > 100 µM | Malme-3M > 100 µM | RPMI-8226 > 100 µM | OVCAR-8 > 100 µM | SK-OV-3 > 100 µM | SK-MEL-5 > 100 µM

Source: ChEMBL document CHEMBL1201862, “PubChem BioAssay data set” (2004)
